How the values were obtained:
[1] = biological target: PknD kinase domain (PknD1–378) (Mycobacterium tuberculosis, UniProt P9WI79)
[2] = biological target: PknA kinase domain (PknA1–337) (Mycobacterium tuberculosis, UniProt P9WI83)
UsfX (Rv3287c) = biological target: T1, UsfX (Rv3287c) (Mycobacterium tuberculosis, UniProt P9WGX7)
T1 construct: gene rsbW

[3] = biological target: PknE kinase domain (PknE1–286) (Mycobacterium tuberculosis, UniProt P9WI77)
[4] = biological target: PknB kinase domain (PknB1–308) (Mycobacterium tuberculosis, UniProt P9WI81)
Chain of PknB kinase domain (PknB1–308) (P9WI81 1-308): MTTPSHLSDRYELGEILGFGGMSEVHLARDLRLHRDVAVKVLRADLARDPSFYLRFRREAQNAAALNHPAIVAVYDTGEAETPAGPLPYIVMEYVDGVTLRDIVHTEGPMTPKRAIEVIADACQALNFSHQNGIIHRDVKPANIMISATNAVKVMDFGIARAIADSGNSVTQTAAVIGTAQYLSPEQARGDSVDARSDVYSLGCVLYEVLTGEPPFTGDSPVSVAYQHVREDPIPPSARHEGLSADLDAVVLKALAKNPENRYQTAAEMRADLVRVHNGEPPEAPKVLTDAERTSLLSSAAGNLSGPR

[5] = biological target: PknK kinase domain (PknK1–289) (Mycobacterium tuberculosis, UniProt P9WI65)
Chain of PknK kinase domain (PknK1–289) (P9WI65 1-289): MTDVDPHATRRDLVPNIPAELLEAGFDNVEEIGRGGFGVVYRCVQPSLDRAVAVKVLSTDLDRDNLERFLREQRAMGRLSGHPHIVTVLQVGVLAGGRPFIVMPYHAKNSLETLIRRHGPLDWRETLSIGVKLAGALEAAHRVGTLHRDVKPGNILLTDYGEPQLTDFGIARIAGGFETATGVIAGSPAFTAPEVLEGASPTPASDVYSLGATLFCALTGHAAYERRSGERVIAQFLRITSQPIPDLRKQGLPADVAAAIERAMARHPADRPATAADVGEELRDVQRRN

Chain of PknE kinase domain (PknE1–286) (P9WI77 1-286): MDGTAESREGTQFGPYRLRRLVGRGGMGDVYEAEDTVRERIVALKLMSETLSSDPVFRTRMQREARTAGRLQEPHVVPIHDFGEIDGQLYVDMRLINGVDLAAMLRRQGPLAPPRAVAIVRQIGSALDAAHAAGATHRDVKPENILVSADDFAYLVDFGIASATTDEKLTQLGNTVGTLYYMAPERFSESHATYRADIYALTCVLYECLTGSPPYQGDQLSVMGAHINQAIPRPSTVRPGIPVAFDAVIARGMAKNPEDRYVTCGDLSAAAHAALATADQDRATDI
Chain of PknD kinase domain (PknD1–378) (P9WI79 1-378): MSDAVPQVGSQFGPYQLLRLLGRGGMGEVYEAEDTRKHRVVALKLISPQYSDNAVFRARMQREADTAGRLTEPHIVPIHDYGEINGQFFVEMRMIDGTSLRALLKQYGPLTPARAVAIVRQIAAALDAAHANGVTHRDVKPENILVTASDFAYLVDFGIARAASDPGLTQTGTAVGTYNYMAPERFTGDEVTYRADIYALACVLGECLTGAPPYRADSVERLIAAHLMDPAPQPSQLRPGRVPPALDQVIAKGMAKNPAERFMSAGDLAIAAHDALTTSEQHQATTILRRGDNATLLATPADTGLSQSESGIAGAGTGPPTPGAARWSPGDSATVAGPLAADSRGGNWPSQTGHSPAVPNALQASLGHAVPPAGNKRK
T1 sequence (P9WGX7 whole entry): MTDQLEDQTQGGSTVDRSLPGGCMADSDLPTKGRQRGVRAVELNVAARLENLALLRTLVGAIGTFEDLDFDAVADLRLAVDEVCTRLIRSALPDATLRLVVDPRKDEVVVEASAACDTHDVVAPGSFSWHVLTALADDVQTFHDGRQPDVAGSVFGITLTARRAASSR
Chain of PknA kinase domain (PknA1–337) (P9WI83 1-337): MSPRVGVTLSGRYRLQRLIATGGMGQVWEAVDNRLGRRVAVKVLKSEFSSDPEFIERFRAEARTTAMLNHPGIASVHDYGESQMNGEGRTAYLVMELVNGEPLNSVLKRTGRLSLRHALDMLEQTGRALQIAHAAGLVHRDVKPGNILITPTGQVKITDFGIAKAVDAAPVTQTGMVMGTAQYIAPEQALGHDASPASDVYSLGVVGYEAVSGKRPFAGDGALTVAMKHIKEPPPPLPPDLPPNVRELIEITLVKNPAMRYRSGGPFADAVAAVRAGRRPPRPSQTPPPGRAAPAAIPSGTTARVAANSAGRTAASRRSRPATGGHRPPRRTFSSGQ

In the case of `O=C1c2ccccc2-c2n[nH]c3cccc1c23` [SP600125], the dose-dependent inhibition [1] is reported as “The SP600125 inhibitor blocked this Rv0516c phosphorylation (Figure 3B) in a dose-dependent manner”.

For `Nc1ncnc2c1ncn2[C@@H]1O[C@H](COP(=O)(O)OP(=O)(O)OP(=O)(O)O)[C@@H](O)[C@H]1O` [ATP], the “[γ-32P]ATP transfer to MyBP and the MBP tag, autoradiography” value [2] was “The MBP tag was phosphorylated by the PknA, PknB, and PknE kinase domains”, the “phosphorylation of MyBP, autoradiography” value (UsfX (Rv3287c)) was “we incubated these proteins under conditions in which UsfX phosphorylated the model substrate” and the “[γ-32P]ATP transfer to Rv0516c, RshA, Rv1904 and RsfA, autoradiography” value [3] was “PknE weakly phosphorylated Rv1904 and RsfA (Rv1365c)”. For the same compound, the “[γ-32P]ATP transfer to Rv0516c and RshA, autoradiography” value [4] was “PknB and PknE also phosphorylated the anti–sigma factor RshA (Rv3221A)” and the “[γ-32P]ATP transfer to MyBP, autoradiography” value [5] was “At concentrations of each kinase domain equally active in phosphorylating the nonspecific substrate, MyBP”.

Source: article PMC1847690 (PLoS Pathogens, 2007)
